Measurements reported in ChEMBL document CHEMBL5696442, “Discovery of type II inhibitors of TGFβ-activated kinase 1 (TAK1) and mitogen-activated protein kinase kinase kinase kinase 2 (MAP4K2)” (J Med Chem, 2015).
Calls of active or inactive are those of the source. No cut-off for these calls is given here.

Legend:
[1] = system: Receptor-type tyrosine-protein kinase FLT3 (Homo sapiens), P36888 [D835H]; assay: Inhibition of FLT3 D835H mutant (unknown origin) at 10 uM by Ambit Kinomescan binding assay relative to control
[2] = target: Dual specificity mitogen-activated protein kinase kinase 1 (Homo sapiens) (UniProt Q02750); assay: Inhibition of MAP2K1 Lys2 labeling site harbouring DVKPSNILVNSR in human A-375 cells at 5 uM by KiNativ Profiling analysis relative to control; assay type: cell-based
[3] = target: Tyrosine-protein kinase ABL (Homo sapiens) (UniProt P00519+P42684); assay: Inhibition of ABL1/2 ACT labeling site in human Huh-7 cells at 10 uM by KiNativ Profiling analysis relative to control; assay type: cell-based
[4] = target: Cyclin-dependent kinase 13 (Homo sapiens) (UniProt Q14004); assay: Inhibition of CHED K2 labeling site in human Huh-7 cells at 1 uM by KiNativ Profiling analysis relative to control; assay type: cell-based
[5] = target: Serine/threonine-protein kinase 26 (Homo sapiens) (UniProt Q9P289); assay: Inhibition of MST4 ATP labeling site in human Huh-7 cells at 1 uM by KiNativ Profiling analysis relative to control; assay type: cell-based
[6] = target: DNA-dependent protein kinase catalytic subunit (Homo sapiens) (UniProt P78527); assay: Inhibition of PRKDC ATP labeling site harbouring EHPFLVKGGEDLR in human Huh-7 cells at 1 uM by KiNativ Profiling analysis relative to control; assay type: cell-based
[7] = Inhibition of TLK1/2 K2 labeling site in human Huh-7 cells at 1 uM by KiNativ Profiling analysis relative to control; conditions: condition cancer
[8] = target: Tyrosine-protein kinase Fes/Fps (Homo sapiens, UniProt P07332); assay: Inhibition of FES (unknown origin) at 10 uM by Ambit Kinomescan binding assay relative to control; values are per cent of control
[9] = target: Tyrosine-protein kinase ABL2 (Homo sapiens, UniProt P42684); assay: Inhibition of ABL2 (unknown origin) at 10 uM by Ambit Kinomescan binding assay relative to control; values are per cent of control
[10] = target: Serine/threonine-protein kinase Nek4 (Homo sapiens) (UniProt P51957); assay: Inhibition of NEK4 Lys2 labeling site in human A-375 cells at 5 uM by KiNativ Profiling analysis relative to control; assay type: cell-based
[11] = target: 5'-AMP-activated protein kinase catalytic subunit alpha-1 (Homo sapiens) (UniProt Q13131); assay: Inhibition of AMPKa1 Lys1 labeling site in human A-375 cells at 0.5 uM by KiNativ Profiling analysis relative to control; assay type: cell-based
[12] = target: Glycogen synthase kinase-3 beta (Homo sapiens) (UniProt P49841); assay: Inhibition of GSK3B Lys2 labeling site in human A-375 cells at 0.05 uM by KiNativ Profiling analysis relative to control; assay type: cell-based
[13] = target: Epithelial discoidin domain-containing receptor 1 (Homo sapiens) (UniProt Q08345); assay: Inhibition of DDR1 (unknown origin) at 1 uM by Ambit Kinomescan binding assay relative to control; values are per cent of control
[14] = target: Myosin light chain kinase (Homo sapiens) (UniProt Q32MK0); assay: Inhibition of MLCK (unknown origin) at 1 uM by Ambit Kinomescan binding assay relative to control; values are per cent of control
[15] = target: Serine/threonine-protein kinase pim-3 (Homo sapiens) (UniProt Q86V86); assay: Inhibition of PIM3 (unknown origin) at 1 uM by Ambit Kinomescan binding assay relative to control; values are per cent of control
[16] = target: Mitogen-activated protein kinase kinase kinase 19 (Homo sapiens) (UniProt Q56UN5); assay: Inhibition of YSK4 (unknown origin) at 1 uM by Ambit Kinomescan binding assay relative to control; values are per cent of control
[17] = target: Ribosomal protein S6 kinase beta-2 (Homo sapiens) (UniProt Q9UBS0); assay: Inhibition of p70S6Kb Lys2 labeling site in human Huh-7 cell lysate at 1 uM by KiNativ Profiling analysis relative to control; assay type: subcellular
[18] = target: Rho-associated protein kinase 1 (Homo sapiens) (UniProt Q13464); assay: Inhibition of ROCK1 in human Huh-7 cell lysate at 1 uM by KiNativ Profiling analysis relative to control; assay type: subcellular
[19] = target: Serine/threonine-protein kinase WNK2 (Homo sapiens) (UniProt Q9Y3S1); assay: Inhibition of Wnk2 Lys2 labeling site in human Huh-7 cell lysate at 1 uM by KiNativ Profiling analysis relative to control; assay type: subcellular
[20] = target: Mitogen-activated protein kinase kinase kinase 1 (Homo sapiens) (UniProt Q13233); assay: Inhibition of MAP3K1 Lys2 labeling site in human Huh-7 cells at 1 uM by KiNativ Profiling analysis relative to control; assay type: cell-based

Serine/threonine-protein kinase 26 (Homo sapiens), sequence (Q9P289 2-416 limits assumed): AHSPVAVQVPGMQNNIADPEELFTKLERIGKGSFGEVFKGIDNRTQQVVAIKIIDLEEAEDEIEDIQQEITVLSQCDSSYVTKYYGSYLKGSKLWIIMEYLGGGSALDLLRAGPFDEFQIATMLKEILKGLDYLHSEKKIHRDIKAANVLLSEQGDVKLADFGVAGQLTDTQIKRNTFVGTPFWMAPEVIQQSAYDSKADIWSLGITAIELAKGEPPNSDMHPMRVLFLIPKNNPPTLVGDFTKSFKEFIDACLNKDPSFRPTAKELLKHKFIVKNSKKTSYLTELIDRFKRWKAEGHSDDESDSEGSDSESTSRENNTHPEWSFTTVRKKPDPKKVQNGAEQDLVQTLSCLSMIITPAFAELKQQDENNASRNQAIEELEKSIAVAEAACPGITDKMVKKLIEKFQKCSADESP
Tyrosine-protein kinase ABL2, sequence (P42684 whole entry): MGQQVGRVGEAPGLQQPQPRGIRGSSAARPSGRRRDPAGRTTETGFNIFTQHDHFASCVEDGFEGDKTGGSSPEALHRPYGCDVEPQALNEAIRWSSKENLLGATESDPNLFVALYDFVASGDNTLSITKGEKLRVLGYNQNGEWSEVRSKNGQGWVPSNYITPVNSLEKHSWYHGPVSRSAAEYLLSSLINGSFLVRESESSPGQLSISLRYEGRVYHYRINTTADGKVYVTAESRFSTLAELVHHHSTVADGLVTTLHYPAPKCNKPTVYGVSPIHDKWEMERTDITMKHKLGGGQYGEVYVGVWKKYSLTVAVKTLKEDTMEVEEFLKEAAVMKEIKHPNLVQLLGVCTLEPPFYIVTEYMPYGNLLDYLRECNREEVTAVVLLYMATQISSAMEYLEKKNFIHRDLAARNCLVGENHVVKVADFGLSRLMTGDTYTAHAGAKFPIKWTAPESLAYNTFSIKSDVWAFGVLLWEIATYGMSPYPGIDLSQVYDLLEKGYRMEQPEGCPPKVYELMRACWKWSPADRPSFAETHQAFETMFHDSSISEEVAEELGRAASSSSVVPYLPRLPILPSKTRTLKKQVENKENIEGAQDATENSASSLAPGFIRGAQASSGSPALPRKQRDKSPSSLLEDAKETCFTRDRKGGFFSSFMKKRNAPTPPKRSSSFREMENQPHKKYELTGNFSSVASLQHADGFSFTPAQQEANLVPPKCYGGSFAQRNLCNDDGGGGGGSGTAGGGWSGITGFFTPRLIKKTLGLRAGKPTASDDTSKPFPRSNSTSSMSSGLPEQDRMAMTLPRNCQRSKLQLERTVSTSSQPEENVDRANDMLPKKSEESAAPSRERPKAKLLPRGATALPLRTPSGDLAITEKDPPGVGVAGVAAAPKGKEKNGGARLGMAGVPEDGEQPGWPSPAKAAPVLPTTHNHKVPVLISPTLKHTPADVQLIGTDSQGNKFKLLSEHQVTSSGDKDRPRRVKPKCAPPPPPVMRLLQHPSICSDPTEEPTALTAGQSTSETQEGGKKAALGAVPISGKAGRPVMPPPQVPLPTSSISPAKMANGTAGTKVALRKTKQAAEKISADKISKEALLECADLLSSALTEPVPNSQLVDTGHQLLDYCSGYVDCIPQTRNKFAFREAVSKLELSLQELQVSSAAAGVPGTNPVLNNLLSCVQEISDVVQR
Tyrosine-protein kinase ABL (Homo sapiens), sequence (P00519 whole entry, looked up): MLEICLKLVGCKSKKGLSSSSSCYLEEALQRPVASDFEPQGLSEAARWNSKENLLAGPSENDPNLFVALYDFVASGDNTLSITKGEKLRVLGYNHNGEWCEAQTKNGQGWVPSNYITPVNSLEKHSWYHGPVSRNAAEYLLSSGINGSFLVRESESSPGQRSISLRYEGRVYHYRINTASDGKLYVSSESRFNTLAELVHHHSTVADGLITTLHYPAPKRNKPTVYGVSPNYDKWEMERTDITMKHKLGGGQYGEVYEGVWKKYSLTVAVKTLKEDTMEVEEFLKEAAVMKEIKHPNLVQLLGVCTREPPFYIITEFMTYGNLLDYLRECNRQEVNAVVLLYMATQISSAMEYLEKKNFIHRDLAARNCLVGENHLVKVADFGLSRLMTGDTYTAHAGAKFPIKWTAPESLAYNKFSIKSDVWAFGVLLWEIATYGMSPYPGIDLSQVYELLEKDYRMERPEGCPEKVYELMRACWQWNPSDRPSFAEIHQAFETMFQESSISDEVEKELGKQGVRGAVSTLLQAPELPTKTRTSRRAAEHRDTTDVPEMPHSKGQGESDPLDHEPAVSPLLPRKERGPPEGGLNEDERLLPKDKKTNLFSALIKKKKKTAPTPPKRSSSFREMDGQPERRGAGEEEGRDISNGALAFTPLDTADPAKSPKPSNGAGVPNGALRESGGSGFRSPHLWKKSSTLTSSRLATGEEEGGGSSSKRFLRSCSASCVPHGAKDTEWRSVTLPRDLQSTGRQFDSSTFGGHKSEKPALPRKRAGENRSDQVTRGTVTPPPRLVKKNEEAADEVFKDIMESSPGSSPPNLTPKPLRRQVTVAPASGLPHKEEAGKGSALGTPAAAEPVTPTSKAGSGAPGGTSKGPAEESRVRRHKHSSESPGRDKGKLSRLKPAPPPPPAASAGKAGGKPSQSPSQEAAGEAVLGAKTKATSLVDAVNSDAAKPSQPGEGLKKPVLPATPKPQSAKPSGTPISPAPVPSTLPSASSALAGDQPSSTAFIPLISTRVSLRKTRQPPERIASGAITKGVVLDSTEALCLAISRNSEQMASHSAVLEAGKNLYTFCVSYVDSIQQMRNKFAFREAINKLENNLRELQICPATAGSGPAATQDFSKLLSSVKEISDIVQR
Tyrosine-protein kinase ABL (Homo sapiens), sequence (P42684 whole entry, looked up): as the sequence (P42684 whole entry) above
Cyclin-dependent kinase 13 (Homo sapiens), sequence (Q14004 whole entry, looked up): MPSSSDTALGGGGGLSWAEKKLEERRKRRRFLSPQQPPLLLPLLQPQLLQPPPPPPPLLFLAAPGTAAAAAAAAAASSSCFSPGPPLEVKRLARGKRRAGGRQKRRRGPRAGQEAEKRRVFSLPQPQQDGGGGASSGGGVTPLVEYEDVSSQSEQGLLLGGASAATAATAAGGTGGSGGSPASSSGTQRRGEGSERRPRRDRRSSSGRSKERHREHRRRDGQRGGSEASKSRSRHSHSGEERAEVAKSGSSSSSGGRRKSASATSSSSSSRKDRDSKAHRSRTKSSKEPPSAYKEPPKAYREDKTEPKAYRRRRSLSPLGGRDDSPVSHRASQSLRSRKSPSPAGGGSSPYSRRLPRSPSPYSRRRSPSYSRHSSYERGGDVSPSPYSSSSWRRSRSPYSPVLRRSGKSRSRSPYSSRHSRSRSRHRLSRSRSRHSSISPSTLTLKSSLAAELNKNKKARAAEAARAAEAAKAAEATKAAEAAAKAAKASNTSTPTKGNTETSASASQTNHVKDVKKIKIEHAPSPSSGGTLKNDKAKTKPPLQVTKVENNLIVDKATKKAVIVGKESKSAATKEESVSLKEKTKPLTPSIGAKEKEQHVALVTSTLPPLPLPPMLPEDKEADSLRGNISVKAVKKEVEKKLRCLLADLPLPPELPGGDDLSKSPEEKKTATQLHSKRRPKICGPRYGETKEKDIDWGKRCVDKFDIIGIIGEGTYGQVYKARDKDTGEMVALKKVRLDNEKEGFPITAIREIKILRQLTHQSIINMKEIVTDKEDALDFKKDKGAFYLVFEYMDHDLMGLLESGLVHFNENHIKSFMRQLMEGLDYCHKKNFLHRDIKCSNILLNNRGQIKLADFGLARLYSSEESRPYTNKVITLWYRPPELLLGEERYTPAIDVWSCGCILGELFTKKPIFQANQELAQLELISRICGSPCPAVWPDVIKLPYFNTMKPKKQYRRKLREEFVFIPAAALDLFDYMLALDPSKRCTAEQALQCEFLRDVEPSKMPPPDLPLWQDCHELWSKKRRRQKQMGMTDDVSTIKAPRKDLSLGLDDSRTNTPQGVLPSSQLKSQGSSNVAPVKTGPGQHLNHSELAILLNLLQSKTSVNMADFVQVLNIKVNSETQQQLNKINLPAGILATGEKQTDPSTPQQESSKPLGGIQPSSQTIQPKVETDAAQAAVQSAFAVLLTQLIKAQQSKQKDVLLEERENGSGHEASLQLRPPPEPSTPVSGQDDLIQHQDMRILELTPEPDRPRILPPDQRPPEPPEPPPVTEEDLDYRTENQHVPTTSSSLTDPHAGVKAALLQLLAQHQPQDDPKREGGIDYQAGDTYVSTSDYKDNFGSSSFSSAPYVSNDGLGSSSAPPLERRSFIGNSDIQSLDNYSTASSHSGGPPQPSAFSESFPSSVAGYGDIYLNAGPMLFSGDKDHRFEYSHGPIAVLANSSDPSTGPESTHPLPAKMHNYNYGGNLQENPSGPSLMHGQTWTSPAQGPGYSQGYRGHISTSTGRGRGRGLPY
Myosin light chain kinase (Homo sapiens), sequence (Q32MK0 whole entry): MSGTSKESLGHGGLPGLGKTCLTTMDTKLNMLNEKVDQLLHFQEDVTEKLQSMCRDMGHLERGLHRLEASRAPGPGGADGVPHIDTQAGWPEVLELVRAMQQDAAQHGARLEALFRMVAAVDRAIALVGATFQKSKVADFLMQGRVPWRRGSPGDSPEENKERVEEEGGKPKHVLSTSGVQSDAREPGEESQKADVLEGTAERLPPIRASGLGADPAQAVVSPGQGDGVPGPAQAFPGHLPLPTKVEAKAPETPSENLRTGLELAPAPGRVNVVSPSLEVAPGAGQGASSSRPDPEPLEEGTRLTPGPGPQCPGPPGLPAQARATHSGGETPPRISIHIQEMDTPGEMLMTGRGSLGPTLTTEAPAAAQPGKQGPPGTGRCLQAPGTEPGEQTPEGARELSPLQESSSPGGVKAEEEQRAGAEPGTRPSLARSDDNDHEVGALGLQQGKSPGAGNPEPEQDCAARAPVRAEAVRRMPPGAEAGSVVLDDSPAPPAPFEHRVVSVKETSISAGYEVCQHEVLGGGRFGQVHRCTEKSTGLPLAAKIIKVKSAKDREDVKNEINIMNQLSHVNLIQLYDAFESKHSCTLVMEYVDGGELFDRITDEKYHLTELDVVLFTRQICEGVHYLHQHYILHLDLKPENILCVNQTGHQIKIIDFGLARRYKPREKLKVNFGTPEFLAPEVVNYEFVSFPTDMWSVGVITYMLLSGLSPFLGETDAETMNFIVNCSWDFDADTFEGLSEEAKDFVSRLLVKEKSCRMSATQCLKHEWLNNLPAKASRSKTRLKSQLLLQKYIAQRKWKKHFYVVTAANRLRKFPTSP

Structure (SMILES): CCN1CCN(Cc2ccc(NC(=O)c3ccc(C)c(Oc4ccnc5[nH]ccc45)c3)cc2C(F)(F)F)CC1
- inhibition [1]: 1.2%
- inhibition [2]: -10%
- inhibition [3]: 98.4%
- inhibition [4]: inactive
- inhibition [5]: 18%
- inhibition [6]: 1.4%
- inhibition at 1 µM [7]: -1.1%
- percent of control [8]: 2.2%
- % of control [9]: 0.6%

Structure (SMILES): CCN1CCN(Cc2ccc(NC(=O)c3ccc(C)c(/C=C/c4cnc5[nH]ccc5c4OC)c3)cc2C(F)(F)F)CC1
- inhibition [10]: 50.4%
- inhibition [11]: 20.3%
- inhibition [12]: 29.8%
- % of control [13]: 0.05%
- residual activity [14]: 100%
- residual activity [15]: 100%
- percent of control [16]: 1.1%

Structure (SMILES): CNc1cc(Oc2cc(C(=O)Nc3cc(N4CCN(C)CC4)cc(C(F)(F)F)c3)ccc2C)ncn1
- inhibition [17]: -8.4%
- inhibition [18]: 7.6%
- inhibition [19]: 2.7%
- inhibition [20]: 27%
